Assay: Water-solubility test
Assay type: physicochemical
Description: The hydrophilic metal surface treatment agent (Compound 21) (MW 608.86, 0.32 g) produced in Example 3 was added to ultrapure water (50.09 g), and the mixture was stirred after the water temperature was heated to 60° C.
With respect to even the hydrophilic metal surface treatment agent having an octadecyl group, i.e. n-C18H37, as a long chain hydrocarbon group, an aqueous solution having a concentration of 10.32 mM could be prepared.

visible undissolved residue (0.32 g in ultrapure water 50.09 g, stirred at 60° C., after 3 hours): no visible undissolved residue | concentration of aqueous solution that could be prepared (ultrapure water, 60° C., no surfactant or solubilizing agent): 10320 µM
SMILES: CCCCCCCCCCCCCCCCCCSC(=O)CCC(=O)NC(COC(COC(CO)CO)COC(CO)CO)COC(COC(CO)CO)COC(CO)CO [Compound 21]

— US11124881B2, “Hydrophilic metal surface treatment agent” (CHEMICAL DENSHI CO., LTD., priority 2019, dated 2021)
